# From ChEMBL document CHEMBL4725382, “Uridine natural products: Challenging targets and inspiration for novel small molecule inhibitors” (Bioorg Med Chem, 2020)
# System: Mycobacterium tuberculosis
# Test: Antimycobacterial activity against Mycobacterium tuberculosis H37Rv ATCC 27294 after 14 days by resazurin reduction microplate assay
# Format: functional
# Settings: H37Rv ATCC 27294, 336 h
row,SMILES,MIC50
1,CCCCC[C@H](NC(=O)N[C@@H](Cc1c[nH]c2ccccc12)C(=O)O)C(=O)N[C@H](C(=O)NC[C@H]1C[C@@H](O)[C@H](n2ccc(=O)[nH]c2=O)O1)[C@H](C)N(C)C(=O)CN,0.51 µM
2,C[C@@H]([C@H](NC(=O)[C@@H](NC(=O)N[C@@H](Cc1c[nH]c2ccccc12)C(=O)O)c1ccccc1)C(=O)NC[C@H]1C[C@@H](O)[C@H](n2ccc(=O)[nH]c2=O)O1)N(C)C(=O)CN,> 6.26 µM
3,C[C@@H](O)[C@H](NC(=O)N[C@@H](Cc1c[nH]c2ccccc12)C(=O)O)C(=O)N[C@H](C(=O)NC[C@H]1C[C@@H](O)[C@H](n2ccc(=O)[nH]c2=O)O1)[C@H](C)N(C)C(=O)CN,2.8 µM
4,C[C@@H]([C@H](NC(=O)[C@H](CCCCN)NC(=O)N[C@@H](Cc1c[nH]c2ccccc12)C(=O)O)C(=O)NC[C@H]1C[C@@H](O)[C@H](n2ccc(=O)[nH]c2=O)O1)N(C)C(=O)CN,0.7 µM
5,C[C@@H]([C@H](NC(=O)[C@H](Cc1ccc(C(F)(F)F)cc1)NC(=O)N[C@@H](Cc1c[nH]c2ccccc12)C(=O)O)C(=O)NC[C@H]1C[C@@H](O)[C@H](n2ccc(=O)[nH]c2=O)O1)N(C)C(=O)CN,0.2 µM
6,CC(C)C[C@H](NC(=O)N[C@@H](Cc1c[nH]c2ccccc12)C(=O)O)C(=O)N[C@H](C(=O)NC[C@H]1C[C@@H](O)[C@H](n2ccc(=O)[nH]c2=O)O1)[C@H](C)N(C)C(=O)[C@@H](N)Cc1ccc2ccccc2c1,3 µM
7,CC(C)C[C@H](NC(=O)N[C@@H](Cc1c[nH]c2ccccc12)C(=O)O)C(=O)N[C@H](C(=O)NC[C@H]1C[C@@H](O)[C@H](n2ccc(=O)[nH]c2=O)O1)[C@H](C)N(C)C(=O)[C@@H](N)CCCCN,1.35 µM
8,CC(C)C[C@H](NC(=O)N[C@@H](Cc1c[nH]c2ccccc12)C(=O)O)C(=O)N[C@H](C(=O)NC[C@H]1C[C@@H](O)[C@H](n2ccc(=O)[nH]c2=O)O1)[C@H](C)N(C)C(=O)[C@@H](N)[C@@H](C)O,1.35 µM
9,CC(C)C[C@H](NC(=O)N[C@@H](Cc1c[nH]c2ccccc12)C(=O)O)C(=O)N[C@H](C(=O)NC[C@H]1C[C@@H](O)[C@H](n2ccc(=O)[nH]c2=O)O1)[C@H](C)N(C)C(=O)[C@@H](N)Cc1cccc(O)c1,0.3 µM
10,CC[C@H](C)[C@H](NC(=O)N[C@@H](Cc1c[nH]c2ccccc12)C(=O)O)C(=O)N[C@H](C(=O)NC[C@H]1C[C@@H](O)[C@H](n2ccc(=O)[nH]c2=O)O1)[C@H](C)N(C)C(=O)CN,0.93 µM
11,CC(C)C[C@H](NC(=O)N[C@@H](Cc1c[nH]c2ccccc12)C(=O)O)C(=O)N[C@H](C(=O)NC[C@H]1C[C@@H](O)[C@H](n2ccc(=O)[nH]c2=O)O1)[C@H](C)N(C)C(=O)[C@@H](N)C1CCCCC1,1.1 µM
12,C[C@@H]([C@H](NC(=O)[C@H](Cc1cccnc1)NC(=O)N[C@@H](Cc1c[nH]c2ccccc12)C(=O)O)C(=O)NC[C@H]1C[C@@H](O)[C@H](n2ccc(=O)[nH]c2=O)O1)N(C)C(=O)CN,0.98 µM
13,C[C@@H]([C@H](NC(=O)[C@H](Cc1c[nH]c2ccccc12)NC(=O)N[C@@H](Cc1c[nH]c2ccccc12)C(=O)O)C(=O)NC[C@H]1C[C@@H](O)[C@H](n2ccc(=O)[nH]c2=O)O1)N(C)C(=O)CN,0.44 µM
14,C[C@@H]([C@H](NC(=O)[C@H](CCc1ccccc1)NC(=O)N[C@@H](Cc1c[nH]c2ccccc12)C(=O)O)C(=O)NC[C@H]1C[C@@H](O)[C@H](n2ccc(=O)[nH]c2=O)O1)N(C)C(=O)CN,1.08 µM
15,CC(C)C[C@H](NC(=O)N[C@@H](Cc1c[nH]c2ccccc12)C(=O)O)C(=O)N[C@H](C(=O)NC[C@H]1C[C@@H](O)[C@H](n2ccc(=O)[nH]c2=O)O1)[C@H](C)N(C)C(=O)[C@@H](N)CC1CCCCC1,1 µM
16,C[C@@H]([C@H](NC(=O)[C@H](CC1CCCCC1)NC(=O)N[C@@H](Cc1c[nH]c2ccccc12)C(=O)O)C(=O)NC[C@H]1C[C@@H](O)[C@H](n2ccc(=O)[nH]c2=O)O1)N(C)C(=O)CN,0.08 µM
17,CC(C)[C@H](NC(=O)N[C@@H](Cc1c[nH]c2ccccc12)C(=O)O)C(=O)N[C@H](C(=O)NC[C@H]1C[C@@H](O)[C@H](n2ccc(=O)[nH]c2=O)O1)[C@H](C)N(C)C(=O)CN,0.88 µM
